Assay results: patent EP4772510A2, “BENZAZEPINONE COMPOUND AND USE THEREOF” (HANGZHOU BIO-SINCERITY PHARMA-TECHCO., LTD., priority 2023, dated 2025)

Key:
in vivo = details: rat
Procedure: (§1) Example 59: Pharmacokinetic Experiment of Compounds in SD Rats
(§2) SD rats, male, 6-8 weeks old, purchased from Zhejiang Vital River Laboratory Animal Technology Co., Ltd., production license No.: SCXK (Zhejiang) 2019-0001. The animals were maintained in an SPF-grade animal room of Hangzhou Bio-Sincerity Pharma-Tech Co., Ltd., with the experimental animal use license No. of SYXK (Zhejiang) 2021-0014. The animals were used after being acclimatized for at least one week. All experiments were performed in strict compliance with the regulations on experimental animals.
(§3) Four hours after administration, food was provided.
(§4) After administration to SD rats, about 300 µL of blood was collected from the orbit of each animal and anticoagulated with EDTA-Na2. […] The collected blood was placed in an ice bath and centrifuged within 1 h to separate plasma (centrifugation conditions: 2000× g, 10 min, 4 °C). 50 µL of plasma sample was taken, subjected to protein precipitation, and then assayed by UHPLC-MS. The assay data were analyzed and processed using WinNonLin8.1 pharmacokinetic software to obtain pharmacokinetic parameters.

[1] = Pharmacokinetic experiment in SD rats; details: p.o, 5 mg/kg vs i.v, 0.5 mg/kg
Procedure: as §1, §2, §3, §4

HT-29 cells = experiment: Inhibition of TNF-α-induced necroptosis of HT-29 cells (SRB method); assay type: cell-based, human; details: 18 h
Summary of the method: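 HT-29 cells (3 × 10^4/well, 24 h) were treated 18 h with compound (8 three-fold dilutions, 1000.00-0.46 nM, duplicate) plus TNF-α 20 ng/mL, BV6 2 µM and Z-VAD-FMK 20 µM final, at 37 °C. Viability was read by SRB absorbance; EC50 values were fitted.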

[2] = male, SD, plasma, intravenous, 0.5 mg/kg
[3] = male, SD, plasma, oral, 5 mg/kg
[4] = Homo sapiens, HT-29, TNF-α 20 ng/mL + BV6 2 µM + Z-VAD-FMK 20 µM
[5] = TNF-α 20 ng/mL + BV6 2 µM + Z-VAD-FMK 20 µM

| Compound | AUC(0-t) (in vivo; [2]) [ng·h/mL] | Cmax (in vivo; [2]) [ng/mL] | clearance (in vivo; [2]) [mL/min/kg] | half-life (in vivo; [2]) [h] | AUC(0-t) (in vivo; [3]) [ng·h/mL] | CL/F (in vivo; [3]) [mL/min/kg] | Cmax (in vivo; [3]) [ng/mL] | half-life (in vivo; [3]) [h] | Fabs (%) [1] [%] | EC50 (HT-29 cells; [4]) [nM] | AUC(0-t) (in vivo; in vivo, iv, 0.5 mg/kg) [ng·h/mL] | Cmax (in vivo; in vivo, iv, 0.5 mg/kg) [ng/mL] | clearance (in vivo; in vivo, iv, 0.5 mg/kg) [mL/min/kg] | half-life (in vivo; in vivo, iv, 0.5 mg/kg) [h] | AUC(0-t) (in vivo; in vivo, po, 5 mg/kg) [ng·h/mL] | CL/F (in vivo; in vivo, po, 5 mg/kg) [mL/min/kg] | Cmax (in vivo; in vivo, po, 5 mg/kg) [ng/mL] | half-life (in vivo; in vivo, po, 5 mg/kg) [h] | EC50 (HT-29 cells; [5]) [nM] |
| --- | --- | --- | --- | --- | --- | --- | --- | --- | --- | --- | --- | --- | --- | --- | --- | --- | --- | --- | --- |
| CN1C(=O)[C@@H](NC(=O)c2nnc(Cc3ccccc3)[nH]2)COc2ccccc21 [GSK2982772, (S)-5-benzyl-N-(5-methyl-4-oxo-2,3,4,5-tetrahydrobenzo[b][1,4]oxazepin-3-yl)-4H-1,2,4-triazole-3-carboxamide, reference compound] | 5560 | 4320 | 1.5 | 3.28 | 21700 ± 6530 | 4.03 ± 1.05 | 5820 ± 1210 | 3.06 ± 0.41 | 39.13 ± 11.8 | 5 to 10 | – | – | – | – | – | – | – | – | – |
| Cn1cc(C#Cc2cc3c4c(c2)CCN4C(=O)C(NC(=O)c2ncn(Cc4c(F)cccc4F)n2)CC3)cn1 (stereo not drawn) [III-1, 1-(2,6-difluorobenzyl)-N-(9-((1-methyl-1H-pyrazol-4-yl)ethynyl)-4-oxo-1,2,3,4,6,7-hexahydroazepino[3,2,1-hi]indol-3-yl)-1H-1,2,4-triazole-3-carboxamide] | – | – | – | – | – | – | – | – | 111.92 ± 11.87 | < 5 | 1980 ± 204 | 1430 ± 181 | 5.54 ± 2.45 | 2.38 ± 1.76 | 22600 ± 2370 | 3.7 ± 0.39 | 4100 ± 520 | 2.94 ± 0.16 | – |
| Cn1cc(C#Cc2cc3c4c(c2)CCN4C(=O)C(NC(=O)c2ncn(Cc4cc(F)ccc4F)n2)CC3)cn1 (stereo not drawn) [III-10, 1-(2,5-difluorobenzyl)-N-(9-((1-methyl-1H-pyrazol-4-yl)ethynyl)-4-oxo-1,2,3,4,6,7-hexahydroazepino[3,2,1-hi]indol-3-yl)-1H-1,2,4-triazole-3-carboxamide] | – | – | – | – | – | – | – | – | 51.37 ± 3.03 | < 5 | 5340 ± 1330 | 1940 ± 319 | 1.6 ± 0.39 | 2.37 ± 0.64 | 27700 ± 1560 | 3.01 ± 0.18 | 4660 ± 132 | 2.57 ± 0.69 | – |
| Cn1cc(C#Cc2cc3c4c(c2)CCN4C(=O)C(NC(=O)c2ncn(Cc4ccc(F)c(F)c4)n2)CC3)cn1 (stereo not drawn) [III-12, 1-(3,4-difluorobenzyl)-N-(9-((1-methyl-1H-pyrazol-4-yl)ethynyl)-4-oxo-1,2,3,4,6,7-hexahydroazepino[3,2,1-hi]indol-3-yl)-1H-1,2,4-triazole-3-carboxamide] | – | – | – | – | – | – | – | – | 64.54 ± 10.10 | 10 to 100 | 8830 ± 1290 | 1300 ± 23.2 | 0.91 ± 0.18 | 5.78 ± 2.23 | 60400 ± 9300 | 1.39 ± 0.2 | 7330 ± 781 | 3.19 ± 0.52 | – |
| O=C(NC1CCc2cc(C#Cc3cnn(C(F)F)c3)cc3c2N(CC3)C1=O)c1ncn(Cc2c(F)cccc2F)n1 (stereo not drawn) [III-17, 1-(2,6-difluorobenzyl)-N-(9-((1-(difluoromethyl)-1H-pyrazol-4-yl)ethynyl)-4-oxo-1,2,3,4,6,7-hexahydroazepino[3,2,1-hi]indol-3-yl)-1H-1,2,4-triazole-3-carboxamide] | – | – | – | – | – | – | – | – | – | – | – | – | – | – | – | – | – | – | < 5 |
| O=C(NC1CCc2cc(C#Cc3cnn(C(F)F)c3)cc3c2N(CC3)C1=O)c1ncn(Cc2cc(F)ccc2F)n1 (stereo not drawn) [III-19, 1-(2,5-difluorobenzyl)-N-(9-((1-(difluoromethyl)-1H-pyrazol-4-yl)ethynyl)-4-oxo-1,2,3,4,6,7-hexahydroazepino[3,2,1-hi]indol-3-yl)-1H-1,2,4-triazole-3-carboxamide] | – | – | – | – | – | – | – | – | 121.33 ± 40.32 | < 5 | 703 ± 191 | 662 ± 110 | 12.2 ± 3.04 | 1.37 ± 0.2 | 8130 ± 3570 | 10.3 ± 3.12 | 1480 ± 545 | 2.96 ± 0.69 | – |
| O=C(NC1CCc2cc(C#Cc3cnn(C(F)F)c3)cc3c2N(CC3)C1=O)c1ncn(Cc2ccccc2F)n1 (stereo not drawn) [III-21, N-(9-((1-(difluoromethyl)-1H-pyrazol-4-yl)ethynyl)-4-oxo-1,2,3,4,6,7-hexahydroazepino[3,2,1-hi]indol-3-yl)-1-(2-fluorobenzyl)-1H-1,2,4-triazole-3-carboxamide] | – | – | – | – | – | – | – | – | 97.15 ± 40.17 | < 5 | 651 ± 66.4 | 619 ± 65.8 | 12.8 ± 1.27 | 1.19 ± 0.1 | 6250 ± 2790 | 14.9 ± 6.92 | 1280 ± 509 | 2.66 ± 0.69 | – |
| C#Cc1cc2c3c(c1)CCN3C(=O)C(NC(=O)c1ncn(Cc3c(F)cccc3F)n1)CC2 (stereo not drawn) [III-26, 1-(2,6-difluorobenzyl)-N-(9-ethynyl-4-oxo-1,2,3,4,6,7-hexahydroazepino[3,2,1-hi]indol-3-yl)-1H-1,2,4-triazole-3-carboxamide] | – | – | – | – | – | – | – | – | 51.2 ± 3.29 | < 5 | 550 ± 34.5 | 896 ± 158 | 15.2 ± 0.98 | 0.44 ± 0.03 | 2810 ± 177 | 29.6 ± 1.95 | 1370 ± 389 | 3.98 ± 2.49 | – |
| N-(9-((1-(difluoromethyl)-1H-pyrazol-4-yl)ethynyl)-4-oxo-1,2,3,4,6,7-hexahydroazepino[3,2,1-hi]indol-3-yl)-1-(4-methylbenzyl)-1H-1,2,4-triazole-3-carboxamide [III-25] | – | – | – | – | – | – | – | – | – | – | – | – | – | – | – | – | – | – | 5 to 10 |
